According to US20080221205A1, “FURAN DERIVATIVES FOR PREVENTING AND CURING OSTEOPOROSIS AND PHARMACEUTICAL COMPOSITIONS CONTAINING THE SAME” (priority 2002, published 2008):

System: osteoclast formation
Test: Inhibition rate of furan derivatives versus osteoclast formation (TRAP staining)
Type: cell-based, mice
Conditions: TRAP-positive multinucleated cells, untreated control set as 100%
Description: First, bone marrow cells were isolated, as follow. After sacrificing 7-9 week female mice by cervical dislocation, femur and tibia were excised aseptically while removing attached soft tissues. After cutting both ends of long bones, 1 ml of an enzyme solution, containing 0.1% collagenase (Gibco), 0.05% trypsin and 0.5 mM EDTA (Gibco), was injected to the bone marrow cavity at one end using a syringe with a 26-guage needle, and bone marrow was then collected. After shaking the recovered bone marrow for 30 min, bone marrow cells were collected, and cultured in α-minimum essential medium (α-MEM) supplemented with 10% FBS for 24 hrs. Then, non-adherent cells were collected, which are osteoclast pregenitors, aliquotted onto culture plates at a density of 2×10^5 cells per well, and cultured for 8 days in α-MEM supplemented with 20 ng/ml of macrophage-colony stimulating factor (M-CSF, Peprotech, USA) and 30 ng/ml RANKL (Peprotech, USA). During the 8 days of culturing, the cells were treated with the Compound 1. Thereafter, osteoclast formation was investigated by fixing the cultured cells and then carrying out TRAP staining, as described in the following Experimental Example 2.2. In addition, resorption activity of osteoclasts was investigated by measuring the absorption area after removing osteoclasts in cultures in calcium phosphate-coated plates, as described in Experimental Example 2.3, below.
After cell culture, the adherent cells were washed with PBS, and TRAP staining was performed, as follows. After being fixed with citrate-acetate-formaldehyde for 5 min, the cells were incubated for 1 hr in acetate buffer (prewarmed at 37° C., pH 5.0) containing naphthol AS-BI phosphate, fast Garnet GBC and 7 mM tartrate buffer (pH 5.0). TRAP-positive multinucleated cells having 3 or more nuclei were considered as osteoclasts.
Osteoclast pregenitor cells were isolated, and their differentiation to mature osteoclasts was induced, according to the same method as in the Experimental Example 2-1, while treated with each of the furan derivatives of the present invention. According to the same method as in the Experimental Example 2-2, TRAP staining performed, and TRAP-positive multinucleated cells were counted. An inhibition rate of each furan derivative against osteoclast formation was expressed as percentage, wherein the number of stained cells in a control not treated the furan derivative was arbitrarily set as 100% (Tables 14 to 16).

SMILES | Inhibition rate against osteoclast formation, % (0.1 μM) [%] | Inhibition rate against osteoclast formation, % (10 μM) [%] | Inhibition rate against osteoclast formation, % (1 μM) [%]
O=Cc1ccc(COC(=O)Cc2ccc3ccccc3c2)o1 [Compound 38] | 0 | 20 | –
CCCc1ccc(OCc2ccc(C(=O)Nc3ccc(F)cc3F)o2)c(OC)c1 [Compound 176] | 0 | – | 0
COc1cccc(F)c1CC(=O)OCc1ccc(C=O)o1 [Compound 41] | 0 | – | –
O=C(Nc1ccccc1[N+](=O)[O-])c1ccc(COc2ccccc2Cl)o1 [Compound 183] | 0 | – | 0
O=Cc1ccc(COC(=O)Nc2cccc(Cl)c2)o1 [Compound 49] | 0 | 0 | 10
O=C(Nc1ccccc1)c1ccc(COc2ccc3ccccc3c2)o1 [Compound 137] | 0 | – | 0
COc1ccc(NC(=O)c2ccc(COc3ccccc3Br)o2)c(OC)c1 [Compound 188] | 0 | 7.6 | 0
CCCc1ccc(OCc2ccc(C(=O)Nc3ccc(OC)c(OC)c3)o2)cc1 [Compound 164] | 0 | – | 0
O=C(O)c1ccc(COc2ccccc2Br)o1 [Compound 108] | 0 | – | 0
COc1ccccc1OCc1ccc(C(=O)Nc2ccc(C)c(C)c2)o1 [Compound 175] | 0 | – | 0
CC1CCN(C(=O)c2ccc(COc3cc(Cl)ccc3Cl)o2)CC1 [Compound 124] | 0 | – | 0
O=C(Nc1cccc([N+](=O)[O-])c1)c1ccc(COc2ccc(I)cc2)o1 [Compound 191] | 0 | – | 0
O=C(c1ccc(COc2cc(Cl)ccc2Cl)o1)N1CCCCCC1 [Compound 133] | 0 | 0.5 | 0
CCC(C)NC(=O)c1ccc(COc2ccc(I)cc2)o1 (stereo not drawn) [Compound 121] | 0 | – | 0
CCc1ccc(OCc2ccc(C(=O)Nc3cc(C)cc(C)c3)o2)cc1 [Compound 169] | 0 | – | 0
CCCc1ccc(OCc2ccc(C(=O)O)o2)cc1 [Compound 100] | 0 | – | 0
O=Cc1ccc(COC(=O)Cc2cccc(Cl)c2)o1 [Compound 35] | 0 | – | –
O=C(O)c1ccc(COc2ccccc2Cl)o1 [Compound 107] | 0 | 32 | 0
Cc1cc(C)cc(OCc2ccc(C(=O)Nc3ccccc3F)o2)c1 [Compound 177] | 0 | – | 0
O=Cc1ccc(COC(=O)Nc2ccc(Cl)c(Cl)c2)o1 [Compound 54] | 0 | 10 | 0
Cc1cccc(C)c1NC(=O)c1ccc(COc2ccc(Cl)cc2)o1 [Compound 179] | 0 | – | 0
COc1ccc(NC(=O)c2ccc(COc3ccc(F)cc3)o2)c([N+](=O)[O-])c1 [Compound 149] | 0 | – | –
O=C(Nc1ccc(F)c(F)c1)c1ccc(COc2ccc(I)cc2)o1 [Compound 143] | 0 | – | 0
COC(=O)c1ccc(COc2ccc(Cl)cc2)o1 [Compound 80] | 0 | – | 0
COC(=O)c1ccc(COc2cc(C)ccc2C(C)C)o1 [Compound 68] | 0 | 5.62 | 0
CC(C)(C)NC(=O)c1ccc(COCC(F)(F)F)o1 [Compound 127] | 0 | – | 0

SMILES | Inhibition rate against osteoclast formation, % (0.1 μM) [%] | Inhibition rate against osteoclast formation, % (10 μM) [%] | Inhibition rate against osteoclast formation, % (1 μM) [%]
COC(=O)c1ccc(CNc2ccccc2)o1 [Compound 89] | 0 | – | 0
O=C(Nc1cccc(Br)c1)c1ccc(COc2ccc(F)cc2)o1 [Compound 140] | 0 | – | 0
COC(=O)c1ccccc1NC(=O)c1ccc(COc2ccc(C)c(C)c2)o1 [Compound 180] | 0 | – | 0
O=Cc1ccc(COC(=O)Cc2c(F)cccc2Cl)o1 [Compound 34] | 0 | – | –
O=Cc1ccc(COC(=O)Cc2ccccc2)o1 [Compound 32] | 0 | 50 | –
CC(C)(C)NC(=O)c1ccc(COc2ccccc2Br)o1 [Compound 129] | 0 | 2.2 | 0
COC(=O)c1ccc(CNC(C)(C)C)o1 [Compound 91] | 0 | – | 0
CC(C)NC(=O)c1ccc(CNc2cc(Cl)ccc2Cl)o1 [Compound 130] | 0 | – | 0
COc1ccccc1NC(=O)c1ccc(COc2ccccc2OC)o1 [Compound 166] | 0 | – | 0
COc1ccc(C)cc1NC(=O)c1ccc(COc2cccc(Cl)c2)o1 [Compound 171] | 0 | 0.42 | 0
O=C(Nc1cc(F)ccc1F)c1ccc(COc2ccccc2Cl)o1 [Compound 161] | 0 | – | 0
COC(=O)c1ccc(CN(C)C)o1 [Compound 85] | 0 | – | 0
CC(C)(C)c1ccc(OCc2ccc(C(=O)Nc3ccccc3)o2)cc1 [Compound 136] | 0 | – | 0
CCCc1ccc(OCc2ccc(C(=O)Nc3cc(Cl)ccc3Cl)o2)cc1 [Compound 170] | 0 | – | 0
COC(=O)c1ccc(COc2ccc(I)cc2)o1 [Compound 79] | 0 | – | 0
COC(=O)c1ccc(COc2ccc(Cl)cc2Cl)o1 [Compound 60] | 0 | – | 0
O=C(Nc1cc(C(F)(F)F)ccc1Cl)c1ccc(COc2ccc(Cl)cc2)o1 [Compound 181] | 0 | – | 0
O=C(Nc1cc(F)ccc1F)c1ccc(COc2cccc(Cl)c2)o1 [Compound 151] | 0 | – | 0
COc1ccc(NC(=O)c2ccc(COc3cc(Cl)ccc3Cl)o2)c(OC)c1 [Compound 145] | 0 | – | –
CCN(CC)C(=O)c1ccc(COc2ccc(Cl)c(C)c2)o1 [Compound 123] | 0 | 100 | 6.9
Cc1cc(OCc2ccc(C(=O)Nc3cccc(C)c3C)o2)ccc1Cl [Compound 172] | 0 | – | 0
NC(=O)c1ccc(NC(=O)c2ccc(COc3cc(Cl)ccc3Cl)o2)cc1 [Compound 148] | 0 | – | –
CC(C)(C)c1ccc(OCc2ccc(C(=O)NC3CCCCC3)o2)cc1 [Compound 134] | 0 | – | 0
O=C(Nc1ccccc1F)c1ccc(COc2ccc(Cl)cc2)o1 [Compound 178] | 0 | – | 0
O=Cc1ccc(COC(=O)Cc2ccc(F)cc2F)o1 [Compound 39] | 0 | – | 10
